Tested on: galK 1 site
Assay: red/white colony screen of editing efficiency at the galK 1 site (CREATE recombineering)
Format: cell-based, E. coli MG1655
Details: for Editing Efficiency 1 mM Theo: induced for 3 hours with 1 mM theophylline; for Editing Efficiency no Theo: no theophylline, 3 hours recovery
Experimental: Candidates from this enriched library were analyzed to inform an improved library design. After three selection/counterselection steps, cells were plated on M63 selection medium^20 and 150 colonies were picked. Each isolated candidate was then transformed into unedited E. coli to screen for theophylline-responsive constructs using a red/white colony assay to quantify the percentage of edited bacteria. Colonies with an unedited galK site appear red whereas edited colonies appear white (FIG. 5). The percentage of white colonies is considered the editing efficiency. Gene editing was induced as previously described with or without adding theophylline and the editing efficiencies were compared.
The protocol established by Garst et al was mainly followed. LB containing kanamycin and chloramphenicol was inoculated with MGλ9 cells and grown overnight at 30° C. The stationary culture was diluted 100 fold in LB, containing chloramphenicol, kanamycin and 0.2% arabinose and grown to an OD600=0.4-0.6 in 25 mL LB. The culture was heat-shocked in a shaking waterbath at 42° C. for 15 minutes to induce expression of the lambda-red proteins from pSIM5. Then, the culture was washed in two volumes of ice-cold deionized water, resuspended in 500 μl deionized water and 50 μl of the cell suspension was electroporated with 200 ng of a CREATE plasmid that encodes gRNA and homology template. The transformants were recovered in 4 mL of LB, containing 0.2% arabinose and optionally 1 mM theophylline or 1 μM anhydrotetracycline (ATC), and shaken at 37° C. for 3 hours before plating on MacConkey Agar. To estimate the number of cfu, aliquots were plated on LB agar 1 hour after transformation.
In order to assess the frequency of gene editing, a red/white screen was used to visualize the introduction of a stop codon into the galK gene by CREATE. The original CREATE protocol was used for inducing gene editing and after 3 hours of recovery (with or without the agRNA ligand) a series of dilutions of the cultures were plated on MacConkey Agar plates containing 1% galactose. Bacterial colonies with a mutated galK* site appear white on the plates, whereas non-edited colonies appear red. The editing efficiency could be calculated by dividing the number of edited colonies over the total number of colonies. By comparing the editing efficiency in presence versus absence of the ligand, a dynamic range of the in vivo activity could be determined.
When screening the enriched libraries for switchable constructs, the transformants were recovered in 4 mL of LB broth, a dilution series was plated for every construct and the experiment was only carried out once due to the large volume of colonies screened (˜250 in total). When the constructs A9 and GU19 were characterized in detail, triplica of the experiment were carried out.

Substance | Editing Efficiency 1 mM Theo [%] | Editing Efficiency no Theo [%] | gene editing activity and ligand dependence (in words) (with and without aptamer ligand)
GC12: agRNA cassette GATAGGCCAGTTAC, SEQ ID NO: 63 (expressed or natural sequence) | 36 | 1 | 
AU16: agRNA cassette AACCGGCCCCGAGT, SEQ ID NO: 29 (expressed or natural sequence) | 6 | 0 | 
A8: agRNA cassette CGGGGGACAATAGG, SEQ ID NO: 12 (expressed or natural sequence) | 82 | 2 | 
GU12: agRNA cassette GCCGGGCCTTTTTT, SEQ ID NO: 44 (expressed or natural sequence) | 7 | 0 | 
AU11: agRNA cassette AATAGGCCACTTAT, SEQ ID NO: 25 (expressed or natural sequence) | 25 | 0 | 
AU18: agRNA cassette AATAGGCCCAGACT, SEQ ID NO: 31 (expressed or natural sequence) | 7 | 0 | 
GC13: agRNA cassette GGAAGGCCTTATAC, SEQ ID NO: 64 (expressed or natural sequence) | 64 | 0 | 
GC1: agRNA cassette GCTGGGCCCTTCCC, SEQ ID NO: 52 (expressed or natural sequence) | 0 | 0 | 
AU17: agRNA cassette AAAGGGCCAGGCAT, SEQ ID NO: 30 (expressed or natural sequence) | 4 | 0 | 
GC4: agRNA cassette GGTCGGCCAGTAGC, SEQ ID NO: 55 (expressed or natural sequence) | 1 | 0 | 
AU7: agRNA cassette AGTAGGCCTTTCAT, SEQ ID NO: 21 (expressed or natural sequence) | 58 | 0 | 
GC11: agRNA cassette GCGTGGCCCTTCCC, SEQ ID NO: 62 (chemistry not given here) | 3 | 0 | 
3-methylxanthine aptamer: theophylline aptamer domain with C22A point mutation at the ligand-binding site; SEQ ID NO: 96 (AUACCAGCUUCGAAAGAAGCCAUUGGCAG; listed as RNA, chemistry not fully specified) |  |  | not activatable by theophylline
AU4: agRNA cassette AACAGGCCTTAATT, SEQ ID NO: 18 (expressed or natural sequence) | 0 | 0 | 
AU8: agRNA cassette ACGGGGCCTAATAT, SEQ ID NO: 22 (expressed or natural sequence) | 48 | 0.3 | 
A26: agRNA cassette GGGGGGCCACGCGC, SEQ ID NO: 13 (expressed or natural sequence) | 89 | 5 | 
AU6: agRNA cassette AAGGGGCCTATAAT, SEQ ID NO: 20 (expressed or natural sequence) | 77 | 5 | 
C2A2: agRNA cassette TAGTGGCTACCATG, SEQ ID NO: 14 (expressed or natural sequence) | 84 | 5 | 
GC10: agRNA cassette GAGCGGCCACAACC, SEQ ID NO: 61 (expressed or natural sequence) | 0 | 0 | 
GU8: agRNA cassette GGCAGGCCTCTTCT, SEQ ID NO: 40 (expressed or natural sequence) | 1 | 0 | 
AU14: agRNA cassette AGTGGGCCAGCCTT, SEQ ID NO: 27 (expressed or natural sequence) | 17 | 0 | 
GC3: agRNA cassette GTCCGGCCCCACAC, SEQ ID NO: 54 (expressed or natural sequence) | 12 | 0 | 

Substance | Editing Efficiency 1 mM Theo [%] | Editing Efficiency no Theo [%] | gene editing activity and ligand dependence (in words) (with and without aptamer ligand)
RG53: agRNA cassette AGTGAGCTAAAAAT, SEQ ID NO: 3 (expressed or natural sequence) | 22 | 0 | 
G1B1: agRNA, 2×4 IL and upper stem cassette GTATCGCTTAAGCC, SEQ ID NO: 2 (expressed or natural sequence) | 59 | 1 | 
GC18: agRNA cassette GATTGGCCGCAACC, SEQ ID NO: 68 (expressed or natural sequence) | 48 | 0 | 
GU14: agRNA cassette GACTGGCCTATAAT, SEQ ID NO: 46 (expressed or natural sequence) | 2 | 0 | 
AU1: agRNA cassette AGGGGGCCTATAAT, SEQ ID NO: 15 (expressed or natural sequence) | 2 | 0 | 
GC5: agRNA cassette GTTGGGCCGCGGAC, SEQ ID NO: 56 (expressed or natural sequence) | 0 | 0 | 
AU5: agRNA cassette ACTCGGCCTGAACT, SEQ ID NO: 19 (chemistry not given here) | 43 | 0 | 
GC7: agRNA cassette GGGGGGCCGAATAC, SEQ ID NO: 58 (expressed or natural sequence) | 71 | 1 | 
AU12: agRNA cassette AGAGGGCCGGGCGT, SEQ ID NO: 26 (expressed or natural sequence) | 26 | 0 | 
AU2: agRNA cassette ACCAGGCCAAGTAT, SEQ ID NO: 16 (expressed or natural sequence) | 4 | 0 | 
AU10: agRNA cassette ATAGGGCCATCCAT, SEQ ID NO: 24 (expressed or natural sequence) | 13 | 0 | 
AU19: agRNA cassette AATAGGCCCGCAGT, SEQ ID NO: 32 (expressed or natural sequence) | 10 | 0 | 
GC15: agRNA cassette GCATGGCCTACTCC, SEQ ID NO: 65 (expressed or natural sequence) | 21 | 1 | 
GC16: agRNA cassette GATAGGCCAACACC, SEQ ID NO: 66 (expressed or natural sequence) | 65 | 1 | 
GU6: agRNA cassette GGACGGCCAAGCAT, SEQ ID NO: 39 (expressed or natural sequence) | 1 | 0 | 
GU16: agRNA cassette GGGAGGCCAGCGAT, SEQ ID NO: 48 (expressed or natural sequence) | 0 | 1 | 
GC20: agRNA cassette GCAAGGCCAACACC, SEQ ID NO: 69 (expressed or natural sequence) | 64 | 0 | 
GC17: agRNA cassette GACCGGCCCCCCGC, SEQ ID NO: 67 (expressed or natural sequence) | 2 | 0 | 
GU2: agRNA cassette GCGAGGCCTACTAT, SEQ ID NO: 35 (expressed or natural sequence) | 0 | 0 | 
GU10: agRNA cassette GTACGGCCCATAAT, SEQ ID NO: 42 (expressed or natural sequence) | 0 | 0 | 
GC9: agRNA cassette GCAGGGCCTCTAAC, SEQ ID NO: 60 (expressed or natural sequence) | 0 | 0 | 

Source: patent publication US12416008B2, “Compositions and methods of use for small-molecule regulation of CRISPR-Cas9 activity using RNA aptamers” (priority 2019, dated 2025)
